Holding throughout (assay type): in vivo, human
Test [1] can be described thus: Sensory tasting in alkalized cocoa powder drink. The note with it: for sensory evaluation of bitterness versus control: 50 ppm added (ppm refer to 1 kg of water), 8 persons. The method, then:
The modified product of example 6 was further compared to alkalized cocoa powder (5 g/200 ml)+50 ppm Epicat-6-C-Glc (ppm refer to 1 kg of water).
The modified product of example 6 was further compared to alkalized cocoa powder (5 g/200 ml)+50 ppm Cat-6,8-C-di-Glc (ppm refer to 1 kg of water).
The examples were repeated with the catechin and epicatechin galactosides and the same sensory results were obtained.

Test [2] can be described thus: Triangle test of taste modification of theobromine solution. The note with it: for taste: compared with theobromine reference; for % of panellists who detected a difference: eight panelists; for taste intensity: theobromine reference bitterness 5.0. The text has this:
To investigate the influence of taste modification of (−)-catechin-8-C-β-D-glucopyranoside on theobromine in comparison to the aglycons (+)-catechin and (−)-epicatechin as well as further C-glycosides like apigenin-8-C-β-D-glucopyranoside (vitexin) and apigenin-6-C-β-D-glucopyranoside (isovitexin), theobromine (3 mmol/L) was spiked with different concentrations of (−)-catechin-8-C-β-D-glucopyranoside, (+)-catechin, (−)-epicatechin as well as apigenin-8-C-β-D-glucopyranoside (vitexin) and apigenin-6-C-β-D-glucopyranoside (isovitexin).

Test [3] is described as follows: Sensory tasting against pure theobromine. The note with it: ca. 10 ppm added to 600 ppm theobromine. An excerpt: Theobromine (600 ppm)+ca. 10 ppm 8-C-glucosylated catechin.
The nature of test [4]: Sensory tasting in non-alkalized cocoa powder drink. The note with it: 50 ppm added.
The nature of test [5]: Sensory tasting in astringent dark chocolate. The note with it: 77 mg of 7.8% solution in propylene glycol per 20 g dark chocolate. The protocol:
77 mg of a solution of catechin-8-C-glucoside dissolved in propylene glycol (7.8%) was added to 20 g of molten dark chocolate with strong astringent taste characteristics. After solidification, the chocolate was tasted against a non-treated reference chocolate.
Food ingredients were prepared starting from green tea extract (5 g) or grape seed extract (5 g) by reaction with glucose (4 g) and 3% K2C03 in 100 ml of water. The reaction was done at 80° C. for exactly 20 min. The resulting flavour reaction mix was freeze-dried to obtain a dark red-brown mass which was then added to astringent tasting chocolate at various levels. In a first screening sensory tasting, the optimum level of addition was identified as 300 ppm.
Ingredients prepared from grape seed extract and tea extract in such a manner when added to dark chocolate at 330 ppm decreased the perceived sensory perception of astringency in the dark chocolate.

Test [6] can be described thus: Sensory tasting against grape seed extract. The note with it: ca. 10 ppm added to 2000 ppm grape seed extract.

For the compound `OC[C@H]1O[C@@H](c2c(O)cc3c(c2O)C[C@@H](O)[C@@H](c2ccc(O)c(O)c2)O3)[C@H](O)[C@@H](O)[C@@H]1O` [Epicat-6-C-Glc, (−)-epicatechin-6-C-β-D-glucopyranoside], the “sensory evaluation of bitterness versus control” value in test [1] was “lower maximum bitterness intensity than control, a flatter bitterness profile and a “softer” bitterness quality”.

On to `Oc1cc(O)c2c(c1)O[C@H](c1ccc(O)c(O)c1)[C@@H](O)C2` [(+)-catechin], for which the taste entry is on record as “bitterness” in test [2] (2.2 μmol/L added), “more cocoa like” in test [2] (22.2 μmol/L added) and “more cocoa like” in test [2] (222/L μmol/L added). The results for the “% of panellists who detected a difference” value in test [2] (2.2 μmol/L added), in test [2] (22.2 μmol/L added) and in test [2] (222/L μmol/L added) were 0%, 50% and 50%, respectively. Moreover, the taste intensity is reported as 5.0 in test [2] (2.2 μmol/L added), 5.0 in test [2] (22.2 μmol/L added) and “bitterness (4.0)” in test [2] (222/L μmol/L added).

For the compound `O=c1cc(-c2ccc(O)cc2)oc2c([C@@H]3O[C@H](CO)[C@@H](O)[C@H](O)[C@H]3O)c(O)cc(O)c12` [vitexin, apigenin-8-C-β-D-glucopyranoside], the “% of panellists who detected a difference” value in test [2] (2 μmol/L added) was 0%; in test [2] (22.2 μmol/L added), 0%; in test [2] (222/L μmol/L added) it was 50%. For the same compound, the taste intensity in test [2] (2 μmol/L added) is on record as 5.0; in test [2] (22.2 μmol/L added), 5.0; in test [2] (222/L μmol/L added), 4.5.

Regarding `OCC1OC(c2c(O)c3c(c(C4OC(CO)C(O)C(O)C4O)c2O)OC(c2ccc(O)c(O)c2)C(O)C3)C(O)C(O)C1O` (single isomer, unassigned; (-)) [Cat-6,8-C-di-Glc, (−)-cat-echin-6-C-8-C-β-D-diglucopyranoside], in test [1], the “sensory evaluation of bitterness versus control” value was “lower maximum bitterness intensity than control, a flatter bitterness profile and a “softer” bitterness quality”.

`O=c1cc(-c2ccc(O)cc2)oc2cc(O)c([C@@H]3O[C@H](CO)[C@@H](O)[C@H](O)[C@H]3O)c(O)c12` [isovitexin, apigenin-6-C-β-D-glucopyranoside]: in test [2] (2.2 μmol/L added), the taste result is listed as “bitterness”, the “% of panellists who detected a difference” value is 0% and the taste intensity is listed as 5.0. Further, in test [2] (22.2 μmol/L added), the taste result is recorded as “bitterness”, the “% of panellists who detected a difference” value came out at 0% and the taste intensity stood at 5.0. Also, in test [2] (222/L μmol/L added), the taste entry is “bitterness”, the “% of panellists who detected a difference” value is 50% and the taste intensity was 4.5.

As for `Oc1cc(O)c2c(c1)OC(c1ccc(O)c(O)c1)C(O)C2` (single isomer, unassigned; (-)) [(−)-epicatechin], in test [2] (2.2 μmol/L added), the taste entry is recorded as “bitterness”, the “% of panellists who detected a difference” value amounted to 0% and the taste intensity was 5.0. Also, in test [2] (22.2 μmol/L added), the taste entry is “more cocoa like”, the “% of panellists who detected a difference” value is listed as 50% and the taste intensity turned out to be 5.0. For the same compound, in test [2] (222/L μmol/L added), the taste result was “more cocoa like”, the “% of panellists who detected a difference” value came to 50% and the taste intensity result is “bitterness (4.0)”.

Regarding `OC[C@H]1O[C@@H](c2c(O)cc3c(c2O)C[C@@H](O)[C@H](c2ccc(O)c(O)c2)O3)[C@H](O)[C@@H](O)[C@@H]1O` [Cat-6-C-Glc, (−)-catechin-6-C-β-D-glucopyranoside], the “sensory evaluation of bitterness versus control” value in test [1] was “lower maximum bitterness intensity than in the control sample, a flat bitterness profile and a “softer bitterness quality”.

In the case of `OC[C@H]1O[C@@H](c2c(O)cc(O)c3c2O[C@@H](c2ccc(O)c(O)c2)[C@H](O)C3)[C@H](O)[C@@H](O)[C@@H]1O` [(−)-catechin-8-C-β-D-glucopyranoside], in test [3], the “bitterness intensity compared to pure theobromine” value is reported as “did not a perceive a decrease in bitterness intensity” and the “timing of bitterness perception compared to pure theobromine” value is reported as “delay in bitterness perception”. Further, in test [4], the “taste perception versus reference without addition” value was “milder and less astringent”. Further, in test [5], the “astringency versus non-treated reference chocolate” value is listed as “lower”, the “bitterness versus non-treated reference chocolate” value is reported as “remained unchanged” and the “tasters who noticed a "smoothing out" effect” value was 4 of 5. Moreover, in test [2] (2.2 μmol/L added), the taste entry was “softer, more”; the “% of panellists who detected a difference” value came out at 10%; the taste intensity entry is “(4.5)”. In test [2] (22.2 μmol/L added), the taste result is given as “softer, more pleasant”; the “% of panellists who detected a difference” value was 50%; the taste intensity result is recorded as “less bitter (3.5)”. In addition, in test [2] (222/L μmol/L added), the taste entry is “softer, more pleasant”; the “% of panellists who detected a difference” value is listed as 100%; the taste intensity result is “less bitter (1.0)”. In addition, the “astringency versus reference of grape seed extract” value in test [6] is reported as “decrease in astringency”. In addition, the “taste perception versus reference without addition” value in test [1] (50 ppm added, 5 persons) was “less bitter and less astringent”.

For the origin of these results see patent US20070269570A1, “FLAVONOID SUGAR ADDITION PRODUCTS, METHOD FOR MANUFACTURE AND USE THEREOF” (priority 2006, published 2007).
